Reference: patent US8642765B2, “Azaindole-indole coupled derivatives, preparation methods and uses thereof” (priority 2007, dated 2014)

How the values were obtained:
[1] = system: DU145 tumor cells; assay: MTT growth inhibition of DU145 cells, 72 h; assay type: cell-based, human; conditions: for IC50 / IC90: DU145, 72 h, MTT
Description: DU145 cells were inoculated in RPM11640 medium containing 10% calf serum, incubated at 37° C., 5% CO2 in CO2 incubator, and passaged every 2-3 days. In this experiment, cells were grown in logarithmic growth phase.
In the experiment, the cells at logarithmic growth phase were formulated into suspension, and the viability by trypan blue staining was more than 98%. The suspension was divided into several groups: 1 as blank control group (cell suspension); and 2 as experimental groups (cell suspension plus drugs).
(§1) The drugs were formulated into a stock solution in DMSO, and the concentration of the stock solution was 20 mmol (used within 4 hours). In the experiment, the work solution of the drugs was diluted with RPM11640 medium containing 10% calf serum under aseptic condition, to a final concentration of 80 μM. The drug concentrations were increased by 2 times (1.25-20 μM).
(§2) The DU145 cell in logarithmic growth phase were selected, centrifuged, counted, and formulated into a cell suspension (2.5×10^4/ml) with RPM11640 medium containing 10% calf serum. The cell suspension were inoculated into 96-well plates at a density of 5000 cells/200 μl per well, incubated for 24 hours at 37° C., 5% CO2. According to the above concentration of the drug, the cells were inoculated to 6 groups (including one control group), with 8 wells per group. After incubating for 72 hours, the viability of cells was measured by MTT assay. The absorbance value (A) was measured with detection wavelength at 540 nm, reference wavelength at 630 nm. The inhibitory rate (I) was calculated by the following equation, where T was the absorbance value of the experimental groups, and C was the absorbance value of the blank control group: I=(1−T/C)×100%
(§3) The regression equation was calculated by the concentration-inhibitory rate curve, to obtain 50% and 90% inhibition concentration (IC50 and IC90, μM).

[2] = system: human lung adenocarcinoma cell line A549; assay: MTT growth inhibition of A549 cells; assay type: cell-based; conditions: read-out: IC50 (μM) Tumor cells A549
Description: as §1, §2, §3
(§4) 1. Tumor Cells: human hepatoma cell lines 7701 QGY and HepG-2, human lung adenocarcinoma cell line A549, human chronic myelocytic leukemia cell line K562, human leukemia cell line CEM and mouse melanoma cell line K111.
(§5) 2. Using the methods described in example 2, the biological activity of a portion of newly synthesized 5- or 7-azaindirubin derivatives and 5- or 7-azaisoindigo derivatives (20 compounds) for inhibiting various tumor cells growth were determined.

[3] = system: human hepatoma cell line HepG-2; assay: MTT growth inhibition of HepG-2 cells; assay type: cell-based; conditions: HepG-2, MTT; read-out: IC50 (μM) Tumor cells HepG-2
Description: as §1, §2, §3, §4, §5

[4] = system: mouse melanoma cell line K111; assay: MTT growth inhibition of K111 cells; assay type: cell-based; conditions: Klll, read-out: IC50 (μM) Tumor cells Klll
Description: as §1, §2, §3, §4, §5

[5] = system: human hepatoma cell line 7701 QGY; assay: MTT growth inhibition of 7701 QGY cells; assay type: cell-based; conditions: read-out: IC50 (μM) Tumor cells 7701 QGY
Description: as §1, §2, §3, §4, §5

[6] = system: human chronic myelocytic leukemia cell line K562; assay: MTT growth inhibition of K562 cells; assay type: cell-based; conditions: read-out: IC50 (μM) Tumor cells K562
Description: as §1, §2, §3, §4, §5

[7] = system: human leukemia cell line CEM; assay: MTT growth inhibition of CEM cells; assay type: cell-based; conditions: read-out: IC50 (μM) Tumor cells CEM
Description: as §1, §2, §3, §4, §5

[8] = Homo sapiens, DU-145, 72 h, Table 5
[9] = Homo sapiens, DU-145, 72 h, Table 6

Row | Compound | IC50 ([1]; Table 6) [µM] | IC90 ([1]; Table 6) [µM] | IC50 ([1]; Table 5) [µM] | IC90 ([1]; Table 5) [µM] | also measured
1 | CCN1C(=O)C(=C2C(=O)Nc3ccc(F)cc32)c2cccnc21 [Compound 162] | 17.5 | 89 |  |  | 
2 | CCCCN1C(=O)C(=C2Nc3ccccc3C2=O)c2cccnc21 [Compound 99] | 11.5 | 87 |  |  | IC50 [2]: 18.4 µM; IC50 [3]: 29.3 µM; IC50 [4]: 10.1 µM; IC50 [5]: 12.4 µM; IC50 [6]: 6.7 µM; IC50 [7]: 7.1 µM
3 | CCN1C(=O)C(=C2Nc3ccc(Br)cc3C2=O)c2cccnc21 [Compound 103] | 10 | 32.2 |  |  | 
4 | O=C1Nc2ccc(Br)cc2C1=C1C(=O)N(Cc2ccccc2)c2ncccc21 [Compound 176] |  |  |  |  | IC50 [2]: 13.2 µM; IC50 [3]: 20.6 µM; IC50 [4]: 8.3 µM; IC50 [5]: 13.7 µM; IC50 [6]: 4.1 µM; IC50 [7]: 7.4 µM
5 | CCN1C(=O)C(=C2Nc3ccc(Br)cc3C2=NO)c2cnccc21 [Compound 28] |  |  | 4.5 | 14 | 
6 | CN1C(=O)C(=C2Nc3ccccc3C2=NO)c2cccnc21 [Compound 128] | 2.7 | 7.1 |  |  | IC50 [2]: 10 µM; IC50 [3]: 12.6 µM; IC50 [4]: 3.6 µM; IC50 [5]: 7.6 µM; IC50 [6]: 7.7 µM; IC50 [7]: 10.5 µM
7 | CCCCN1C(=O)C(=C2C(=O)Nc3ccc(F)cc32)c2cnccc21 [Compound 82] |  |  | > 100 | > 100 | 
8 | CC(C)N1C(=O)C(=C2Nc3ccccc3C2=O)c2cnccc21 [Compound 7] |  |  | > 100 |  | 
9 | CN1C(=O)C(=C2Nc3ccc(Cl)cc3C2=NO)c2cnccc21 [Compound 25] |  |  | 1.7 | 12.2 | growth inhibitory effects on tumor cells (in words) ([1]; discussion of the MTT assay, DU145): relatively significant growth inhibitory effects
10 | CN1C(=O)C(=C2Nc3ccc(Cl)cc3C2=O)c2cccnc21 [Compound 102] | 8 | 18 |  |  | IC50 [2]: 22.8 µM; IC50 [3]: 41.5 µM; IC50 [4]: 18.2 µM; IC50 [5]: 39.5 µM; IC50 [6]: 9.5 µM; IC50 [7]: 7 µM
11 | CCCCN1C(=O)C(=C2C(=O)Nc3ccccc32)c2cccnc21 [Compound 169] | 14 | 47 |  |  | 
12 | CC(C)N1C(=O)C(=C2C(=O)Nc3ccc(Cl)cc32)c2cccnc21 [Compound 166] | 10 | 31.5 |  |  | 
13 | CC(C)N1C(=O)C(=C2Nc3ccc(Cl)cc3C2=NO)c2cnccc21 [Compound 31] |  |  | 3.7 | 11.5 | 
14 | O=C1C(=C2C(=O)N(Cc3ccccc3)c3ncccc32)Nc2ccccc21 [Compound 100] | 9.5 | 31.5 |  |  | 
15 | CCN1C(=O)C(=C2Nc3ccc(Br)cc3C2=O)c2cnccc21 [Compound 12] |  |  | 8.8 | 28 | 
16 | CCN1C(=O)C(=C2Nc3ccccc3C2=NO)c2cnccc21 [Compound 38] |  |  | 6.4 | 22 | 
17 | CN1C(=O)C(=C2Nc3ccc(Br)cc3C2=O)c2cccnc21 [Compound 101] | 11.5 | 60 |  |  | IC50 [2]: 21.6 µM; IC50 [3]: 28.8 µM; IC50 [4]: 23 µM; IC50 [5]: 15 µM; IC50 [6]: 7.8 µM; IC50 [7]: 12 µM
18 | CC(=O)OCC1OC(N2C(=O)C(=C3C(=O)Nc4ccccc43)c3cnccc32)C(OC(C)=O)C1OC(C)=O (stereo not drawn) [Compound 67] |  |  | 8 | 44 | 
19 | CCCCN1C(=O)C(=C2Nc3ccc(Br)cc3C2=O)c2cccnc21 [Compound 107] | 14 | 26 |  |  | 
20 | CCN1C(=O)C(=C2Nc3ccc(Cl)cc3C2=O)c2cccnc21 [Compound 104] | 8.5 | 45 |  |  | 
21 | CCCCN1C(=O)C(=C2C(=O)Nc3ccccc32)c2cnccc21 [Compound 78] |  |  | 16 | 51 | 
22 | CCN1C(=O)/C(=C2\Nc3ccccc3C2=O)c2ccccc21 [Compound 90, 1-ethyl-indirubin, reference compound] |  |  |  |  | IC50 [1, 8]: 7.2 µM; IC90 [1, 8]: 31 µM; IC50 [1, 9]: 7 µM; IC90 [1, 9]: 30 µM
23 | CCN1C(=O)C(=C2Nc3ccc(Cl)cc3C2=NO)c2cccnc21 [Compound 120] | 5.4 | 61 |  |  | 
24 | CCCCN1C(=O)C(=C2C(=O)Nc3ccc(Br)cc32)c2cccnc21 [Compound 170] | 15 | 90 |  |  | IC50 [2]: 19.5 µM; IC50 [3]: 25 µM; IC50 [4]: 18.5 µM; IC50 [5]: 28 µM; IC50 [6]: 10.3 µM; IC50 [7]: 8.5 µM

Row | Compound | IC50 ([1]; Table 6) [µM] | IC90 ([1]; Table 6) [µM] | IC50 ([1]; Table 5) [µM] | IC90 ([1]; Table 5) [µM] | also measured
25 | COc1ccc2c(c1)C(=O)C(=C1C(=O)N(C)c3ncc(C)cc31)N2 [Compound 95] | 400 | > 100 |  |  | IC50 [2]: 35.2 µM; IC50 [3]: 50.1 µM; IC50 [4]: 15.6 µM; IC50 [5]: 23.9 µM; IC50 [6]: 8.1 µM; IC50 [7]: 9 µM
26 | CC(C)N1C(=O)C(=C2C(=O)Nc3ccccc32)c2cccnc21 [Compound 164, 1-isopropyl-7-azaisoindigo] | 9.05 | 19 |  |  | IC50 [2]: 23.3 µM; IC50 [3]: 29 µM; IC50 [4]: 9.1 µM; IC50 [5]: 33.1 µM; IC50 [6]: 18.6 µM; IC50 [7]: 12.7 µM
27 | CCCCN1C(=O)C(=C2Nc3ccc(Cl)cc3C2=O)c2cccnc21 [Compound 108] | 11 | 42 |  |  | 
28 | CCCCN1C(=O)C(=C2C(=O)Nc3ccc(Cl)cc32)c2cccnc21 [Compound 171] | 9 | 46 |  |  | 
29 | CN1C(=O)C(=C2C(=O)Nc3ccc(F)cc32)c2cnccc21 [Compound 63] |  |  | 48 | > 100 | 
30 | CC(C)N1C(=O)C(=C2Nc3ccccc3C2=O)c2cccnc21 [Compound 98] | > 100 |  |  |  | 
31 | CC(C)N1C(=O)C(=C2Nc3ccc(Cl)cc3C2=O)c2cccnc21 [Compound 106] | 18.5 | 100 |  |  | IC50 [2]: 19.6 µM; IC50 [3]: 18 µM; IC50 [4]: 14 µM; IC50 [5]: 28 µM; IC50 [6]: 20.4 µM; IC50 [7]: 10.2 µM
32 | CC(C)N1C(=O)C(=C2Nc3ccccc3C2=NO)c2cccnc21 [Compound 130] | 7.05 | 17 |  |  | 
33 | CCN1C(=O)C(=C2C(=O)Nc3ccc(Cl)cc32)c2cccnc21 [Compound 161] | 14 | 45 |  |  | 
34 | O=C1C(=C2Nc3ccc(Cl)cc3C2=NO)c2cnccc2N1Cc1ccccc1 [Compound 35] |  |  | 7.3 | 20 | 
35 | CC(C)N1C(=O)C(=C2C(=O)Nc3ccc(Br)cc32)c2cccnc21 [Compound 165] | 8.3 | 28 |  |  | 
36 | CCCCN1C(=O)C(=C2Nc3ccccc3C2=O)c2cnccc21 [Compound 8] |  |  | 11.5 | 39 | 
37 | CCCCN1C(=O)C(=C2C(=O)Nc3ccc(F)cc32)c2cccnc21 [Compound 173] | > 100 | > 100 |  |  | 
38 | CC1=C(/C=C/C(C)=C/C=C/C(C)=C/C(=O)O)C(C)(C)CCC1 [all-trans retinoic acid, reference compound] |  |  |  |  | IC50 [1, 8]: > 50 µM; IC50 [1, 9]: > 50 µM
39 | CC(C)N1C(=O)C(=C2Nc3ccc(Cl)cc3C2=NO)c2cccnc21 [Compound 122] | 8 | 25 |  |  | 
40 | CC(C)N1C(=O)C(=C2Nc3ccc(Cl)cc3C2=O)c2cnccc21 [Compound 15] |  |  | 9 | 48 | 
41 | CCN1C(=O)C(=C2Nc3ccc(Cl)cc3C2=NO)c2cnccc21 [Compound 29] |  |  | 2.2 | 6.8 | 
42 | CCCCN1C(=O)C(=C2Nc3ccc(Br)cc3C2=NO)c2cccnc21 [Compound 123] | 3.7 | 5 |  |  | 
43 | CCCCN1C(=O)C(=C2Nc3ccccc3C2=NO)c2cccnc21 [Compound 131, 1-butyl-7-azaindirubin-3′-oxime] | 16 | 80 |  |  | 
44 | O=C1C(=C2C(=O)N(Cc3ccccc3)c3ccncc32)Nc2ccccc21 [Compound 9] |  |  | 12 | 85 | 
45 | CC(C)N1C(=O)C(=C2C(=O)Nc3ccc(Cl)cc32)c2cnccc21 [Compound 75] |  |  | 9.7 | 29 | 
46 | CCN1C(=O)C(=C2C(=O)Nc3ccc(F)cc32)c2cnccc21 [Compound 71] |  |  | 17 | 87 | 
47 | CCCCN1C(=O)C(=C2C(=O)Nc3ccc(Br)cc32)c2cnccc21 [Compound 79] |  |  | 14.5 | 77 | 
